Source: PMC11398567, “Structures of Native Doublet Microtubules from Trichomonas vaginalis Reveal Parasite-Specific Proteins as Potential Drug Targets” (Research Square, 2024)

Target: T1, TvFAP40 (Trichomonas vaginalis, UniProt A2DSS2)
T1 construct: gene TVAG_347810; native full-length protein in doublet microtubules isolated from parasite flagella; C-terminal residue Tyr377; head domain 1-145, coiled-coil tail 149-361; ligand in head domain
T1 sequence (A2DSS2 1-377): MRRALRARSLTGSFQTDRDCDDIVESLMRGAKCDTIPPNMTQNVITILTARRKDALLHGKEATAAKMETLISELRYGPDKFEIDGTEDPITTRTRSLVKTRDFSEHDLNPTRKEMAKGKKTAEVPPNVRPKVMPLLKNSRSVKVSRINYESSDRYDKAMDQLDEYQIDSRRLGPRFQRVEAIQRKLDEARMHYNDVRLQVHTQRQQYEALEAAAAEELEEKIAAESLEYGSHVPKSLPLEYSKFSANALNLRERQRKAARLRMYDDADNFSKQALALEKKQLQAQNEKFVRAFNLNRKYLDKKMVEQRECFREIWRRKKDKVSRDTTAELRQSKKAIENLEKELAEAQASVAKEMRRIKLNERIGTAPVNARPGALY
Test: cryo-EM structure of native doublet microtubules
Format: binding
Settings: co-purified endogenous ligand, putatively assigned from map density; positively charged pocket of head domain; likely metal cation nearby
Text: cryo-EM structure of native doublet microtubules on TvFAP40 | consistent with bonding to a non-planar six-membered ring.

Compound: O=P(O)(O)O[C@H]1[C@H](OP(=O)(O)O)[C@@H](OP(=O)(O)O)[C@H](OP(=O)(O)O)[C@@H](OP(=O)(O)O)[C@H]1OP(=O)(O)O [IP6]
- cryo-EM structure of native doublet microtubules: consistent with bonding to a non-planar six-membered ring. Together these features suggested an inositol polyphosphate
